From US9802960B2 (MILLENNIUM PHARMACEUTICALS, INC., priority 2014, dated 2017)

molecular target: Human VPS34 (Homo sapiens (Human), UniProt Q8NEB9); experiment: Human VPS34 enzyme assay (Adapta TR-FRET); format: biochemical; details: IC50 range class
Sequence (Q8NEB9 whole entry): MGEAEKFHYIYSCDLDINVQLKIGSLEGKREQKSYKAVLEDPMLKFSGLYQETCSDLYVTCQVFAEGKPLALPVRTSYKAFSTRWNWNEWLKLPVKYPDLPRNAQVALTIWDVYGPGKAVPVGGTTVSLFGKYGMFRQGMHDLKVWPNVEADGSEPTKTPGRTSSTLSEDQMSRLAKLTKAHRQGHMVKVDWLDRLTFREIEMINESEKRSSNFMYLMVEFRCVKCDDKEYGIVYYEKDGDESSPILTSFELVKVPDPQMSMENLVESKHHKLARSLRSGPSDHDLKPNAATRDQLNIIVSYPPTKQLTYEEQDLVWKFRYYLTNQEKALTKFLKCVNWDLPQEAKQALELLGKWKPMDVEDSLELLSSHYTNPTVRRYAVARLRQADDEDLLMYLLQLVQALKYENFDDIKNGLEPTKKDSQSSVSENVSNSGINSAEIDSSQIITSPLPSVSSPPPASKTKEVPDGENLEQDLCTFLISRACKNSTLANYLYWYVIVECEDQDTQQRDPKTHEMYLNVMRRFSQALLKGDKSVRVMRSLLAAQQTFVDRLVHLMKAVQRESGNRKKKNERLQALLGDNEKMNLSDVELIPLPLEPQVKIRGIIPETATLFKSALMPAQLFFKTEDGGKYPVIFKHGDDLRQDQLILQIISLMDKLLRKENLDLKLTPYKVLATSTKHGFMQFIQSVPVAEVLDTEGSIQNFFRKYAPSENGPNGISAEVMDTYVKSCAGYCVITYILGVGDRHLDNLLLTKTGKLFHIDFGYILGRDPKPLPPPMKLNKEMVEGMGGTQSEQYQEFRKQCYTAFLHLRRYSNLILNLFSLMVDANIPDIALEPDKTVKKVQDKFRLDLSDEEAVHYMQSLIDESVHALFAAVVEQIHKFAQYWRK

| Compound | IC50 [nM] |
| --- | --- |
| Cc1cccc(Nc2cc(-c3cnc(C)c(NS(=O)(=O)c4ccc(F)cc4F)c3)ccn2)n1 [Compound I-276, 2,4-difluoro-N-{6-methyl-2′-[(6-methylpyridin-2-yl)amino]-3,4′-bipyridin-5-yl}benzenesulfonamide] | < 10 |

same assay, conditions: compound concentration 1.11 μM

| Compound | Percent Inhibition [%] |
| --- | --- |
| CCc1c(-c2ccnc(Nc3ccnc(C)n3)c2)cnc(Cl)c1NS(=O)(=O)c1ccc(F)cc1F [Compound I-259, N-{6-chloro-4-ethyl-2′-[(2-methylpyrimidin-4-yl)amino]-3,4′-bipyridin-5-yl}-2,4-difluorobenzene sulfonamide] | 79 |
| Cc1nccc(Nc2cc(-c3cnc(N)c(C(=O)N(C)C45CC(C4)C5)c3)ccn2)n1 [Compound I-277, 6-amino-N-(bicyclo[1.1.1]pent-1-yl)-N-methyl-2′-[(2-methylpyrimidin-4-yl)amino]-3,4′-bipyridine-5-carboxamide] | 100 |

same assay, conditions: compound concentration 1.11 μM; read-out: Percent Inhibition

| Compound | inhibition at 1.11 µM [%] |
| --- | --- |
| COC(=O)Nc1cc(-c2cnc(C)c(NS(=O)(=O)N(C)C)c2)ccn1 [Compound I-241, methyl {5-[(dimethylsulfamoyl)amino]-6-methyl-3,4′-bipyridin-2′-yl}carbamate] | 96 |
| Cc1nccc(Nc2cc(-c3cnc(Cl)c(S(=O)(=O)NC45CC(C4)C5)c3)ccn2)n1 [Compound I-242, N-(bicyclo[1.1.1]pent-1-yl)-6-chloro-2′-[(2-methylpyrimidin-4-yl)amino]-3,4′-bipyridine-5-sulfonamide] | 88 |
| CC(=O)Nc1cc(-c2cnc(Cl)c(NS(=O)(=O)c3ccc(Cl)cc3Cl)c2C)ccn1 [Compound I-243, N-(6-chloro-5-{[(2,4-dichlorophenyl)sulfonyl]amino}-4-methyl-3,4′-bipyridin-2′-yl)acetamide] | 85 |
| Cc1ncc(-c2ccnc(NC(=O)C3CC3(F)F)c2)cc1NS(=O)(=O)N(C)C (stereo not shown) [Compound I-244, N-{5-[(dimethylsulfamoyl)amino]-6-methyl-3,4′-bipyridin-2′-yl}-2,2-difluorocyclopropanecarboxamide] | 82 |
| COc1nccc(Nc2cc(-c3cncc(C(=O)N(C)C45CC(C4)C5)c3)ccn2)n1 [Compound I-245, N-(bicyclo[1.1.1]pent-1-yl)-2′-[(2-methoxypyrimidin-4-yl)amino]-N-methyl-3,4′-bipyridine-5-carboxamide] | > 99 |
| Cc1ncc(-c2ccnc(Nc3ccnc(C4CC4)n3)c2)cc1C(=O)N1CCC1 [Compound I-246, azetidin-1-yl{2′-[(2-cyclopropylpyrimidin-4-yl)amino]-6-methyl-3,4′-bipyridin-5-yl}methanone] | 91 |
| CC(=O)Nc1cc(-c2cnc(C)c(NS(=O)(=O)c3ccc(F)cc3F)c2C)ccn1 [Compound I-247, N-(5-{[(2,4-difluorophenyl)sulfonyl]amino}-4,6-dimethyl-3,4′-bipyridin-2′-yl)acetamide] | > 99 |
| COc1ncc(-c2ccnc(NC(C)=O)c2)c(C)c1NS(=O)(=O)c1ccc(F)cc1F [Compound I-248, N-(5-{[(2,4-difluorophenyl)sulfonyl]amino}-6-methoxy-4-methyl-3,4′-bipyridin-2′-yl)acetamide] | > 99 |
| Cc1nccc(Nc2cc(-c3cnc(C)c(NC(=O)c4ccc(F)cc4F)c3)ccn2)n1 [Compound I-249, 2,4-difluoro-N-{6-methyl-2′-[(2-methylpyrimidin-4-yl)amino]-3,4′-bipyridin-5-yl}benzamide] | 85 |
| CC(=O)Nc1cc(-c2cnc(Cl)c(NS(=O)(=O)c3ccc(F)cc3F)c2C)c(C)cn1 [Compound I-250, N-(6-chloro-5-{[(2,4-difluorophenyl)sulfonyl]amino}-4,5′-dimethyl-3,4′-bipyridin-2′-yl)acetamide] | 99 |
| CC(=O)Nc1cc(-c2cnc(Cl)c(NS(=O)(=O)c3ccccc3F)c2C)ccn1 [Compound I-251, N-(6-chloro-5-{[(2-fluorophenyl)sulfonyl]amino}-4-methyl-3,4′-bipyridin-2′-yl)acetamide] | 97 |
| COc1ncc(-c2ccnc(Nc3ccnc(C)n3)c2)cc1C(=O)N(C)c1ccc(F)cc1F [Compound I-252, N-(2,4-difluorophenyl)-6-methoxy-N-methyl-2′-[(2-methylpyrimidin-4-yl)amino]-3,4′-bipyridine-5-carboxamide] | > 99 |
| Cc1nccc(Nc2cc(-c3cnc(C)c(C(=O)O)c3)ccn2)n1 [Compound I-253, 6-methyl-2′-((2-methylpyrimidin-4-yl)amino)-[3,4′-bipyridine]-5-carboxylic acid] | 96 |
| Cc1c(-c2ccnc(NC(=O)C3CC3(F)F)c2)cnc(Cl)c1NS(=O)(=O)c1ccc(F)cc1F (stereo not shown) [Compound I-254, N-(6-chloro-5-{[(2,4-difluorophenyl)sulfonyl]amino}-4-methyl-3,4′-bipyridin-2′-yl)-2,2-difluorocyclopropanecarboxamide] | 77 |
| COC(=O)Nc1cc(-c2cnc(Cl)c(NS(=O)(=O)c3ccc(F)cc3F)c2C)ccn1 [Compound I-255, methyl (6-chloro-5-{[(2,4-difluorophenyl)sulfonyl]amino}-4-methyl-3,4′-bipyridin-2′-yl)carbamate] | 95 |
| CNc1c(Cl)ncc(-c2ccnc(Nc3ccnc(C)n3)c2)c1C [Compound I-256, 6-chloro-N~5~,4-dimethyl-N~2~′-(2-methylpyrimidin-4-yl)-3,4′-bipyridine-2′,5-diamine] | 94 |
| CC(=O)Nc1cc(-c2cnc(C)c(NS(=O)(=O)N3CCC3)c2)ccn1 [Compound I-257, N-{5-[(azetidin-1-ylsulfonyl)amino]-6-methyl-3,4′-bipyridin-2′-yl}acetamide] | > 99 |

| Compound | inhibition at 1.11 µM [%] |
| --- | --- |
| CC(=O)Nc1cc(-c2cc(NS(=O)(=O)c3ccc(F)cc3F)c(C)[n+]([O-])c2)ccn1 [Compound I-258, N-[4-(5-{[(2,4-difluorophenyl)sulfonyl]amino}-6-methyl-1-oxidopyridin-3-yl)pyridin-2-yl]acetamide] | 88 |
| CC(=O)Nc1cc(-c2cnc(C)c(NS(=O)(=O)N(C)C)c2C)ccn1 [Compound I-260, N-{5-[(dimethylsulfamoyl)amino]-4,6-dimethyl-3,4′-bipyridin-2′-yl}acetamide] | 91 |
| Cc1nccc(Nc2cc(-c3cnc(C)c(C(=O)N4CCCCC4)c3)ccn2)n1 [Compound I-262, {6-methyl-2′-[(2-methylpyrimidin-4-yl)amino]-3,4′-bipyridin-5-yl}(piperidin-1-yl)methanone] | 81 |
| Cc1ncc(-c2ccnc(-n3cnc4c(C)nccc43)c2)cc1NS(=O)(=O)N(C)C [Compound I-263, N,N-dimethyl-N-[6-methyl-2′-(4-methyl-1H-imidazo[4,5-c]pyridin-1-yl)-3,4′-bipyridin-5-yl]sulfuric diamide] | 53 |
| Cc1c(-c2ccnc(Nc3ccnc(-c4ccccc4)n3)c2)cnc(Cl)c1NS(=O)(=O)c1ccc(F)cc1F [Compound I-264, N-{6-chloro-4-methyl-2′-[(2-phenylpyrimidin-4-yl)amino]-3,4′-bipyridin-5-yl}-2,4-difluorobenzenesulfonamide] | 100 |
| Cc1ncc(-c2ccnc(Nc3ncccn3)c2)cc1NS(=O)(=O)c1ccc(F)cc1F [Compound I-265, 2,4-difluoro-N-[6-methyl-2′-(pyrimidin-2-ylamino)-3,4′-bipyridin-5-yl]benzenesulfonamide] | > 99 |
| Cc1nccc(Nc2cc(-c3cnc(C)c(C(=O)N(C)C)c3)ccn2)n1 [Compound I-266, N,N,6-trimethyl-2′-[(2-methylpyrimidin-4-yl)amino]-3,4′-bipyridine-5-carboxamide] | 100 |
| Cc1ncc(-c2ccnc(NC(=O)C3CC3(F)F)c2)cc1NS(=O)(=O)c1ccc(F)cc1F (stereo not shown) [Compound I-267a, N-(5-{[(2,4-difluorophenyl)sulfonyl]amino}-6-methyl-3,4′-bipyridin-2′-yl)-2,2-difluorocyclopropanecarboxamide] | 97 |
| COc1ncc(-c2ccnc(NC(C)=O)c2)c(C)c1NS(=O)(=O)N(C)C [Compound I-268, N-{5-[(dimethylsulfamoyl)amino]-6-methoxy-4-methyl-3,4′-bipyridin-2′-yl}acetamide] | 100 |
| CC(=O)Nc1cc(-c2cnc(C)c(NS(=O)(=O)N3CCN(C)CC3)c2)ccn1 [Compound I-269, N-(6-methyl-5-{[(4-methylpiperazin-1-yl)sulfonyl]amino}-3,4′-bipyridin-2′-yl)acetamide] | > 99 |
| Cc1ncc(-c2ccnc(Nc3nc4ccccc4s3)c2)cc1NS(=O)(=O)c1ccc(F)cc1F [Compound I-271, N-[2′-(1,3-benzothiazol-2-ylamino)-6-methyl-3,4′-bipyridin-5-yl]-2,4-difluorobenzenesulfonamide] | 91 |
| Cc1cc(Nc2cc(-c3cnc(Cl)c(NS(=O)(=O)c4ccc(F)cc4F)c3C)ccn2)ccn1 [Compound I-272, N-{6-chloro-4-methyl-2′-[(2-methylpyridin-4-yl)amino]-3,4′-bipyridin-5-yl}-2,4-difluorobenzenesulfonamide] | > 99 |
| CCN(C)S(=O)(=O)Nc1cc(-c2ccnc(NC(C)=O)c2)cnc1C [Compound I-273, N-(5-{[ethyl(methyl)sulfamoyl]amino}-6-methyl-3,4′-bipyridin-2′-yl)acetamide] | > 99 |
| CC(=O)Nc1cc(-c2cnc(C)c(NS(=O)(=O)N3CCCC3)c2)ccn1 [Compound I-274, N-{6-methyl-5-[(pyrrolidin-1-ylsulfonyl)amino]-3,4′-bipyridin-2′-yl}acetamide] | > 99 |
| Cc1nccc(Nc2cc(-c3cnc(C)c(C(=O)N(C)C45CC(C4)C5)c3)ccn2)n1 [Compound I-275, N-(bicyclo[1.1.1]pent-1-yl)-N,6-dimethyl-2′-[(2-methylpyrimidin-4-yl)amino]-3,4′-bipyridine-5-carboxamide] | > 99 |
| Cc1cccc(Nc2cc(-c3cnc(C)c(NS(=O)(=O)c4ccc(F)cc4F)c3)ccn2)n1 [Compound I-276, 2,4-difluoro-N-{6-methyl-2′-[(6-methylpyridin-2-yl)amino]-3,4′-bipyridin-5-yl}benzenesulfonamide] | 96 |
| CCc1c(-c2ccnc(NC(=O)C3CC3)c2)cnc(Cl)c1NS(=O)(=O)c1ccc(F)cc1F [Compound I-278, N-(6-chloro-5-{[(2,4-difluorophenyl)sulfonyl]amino}-4-ethyl-3,4′-bipyridin-2′-yl)cyclopropanecarboxamide] | > 99 |
